The text below walks through data of PMC5785474, “Application of Sustainable Natural Resources in Agriculture: Acaricidal and Enzyme Inhibitory Activities of Naphthoquinones and Their Analogs against Psoroptes cuniculi” (Scientific Reports, 2018).

Structures are written as SMILES.

For this test, the target named is acetylcholinesterase (AChE). As to the kind of experiment: AChE activity in crude mite homogenate supernatant, acetylthiocholine/DTNB assay at […] nm. Format: biochemical, Psoroptes cuniculi.

In the case of `CC1=CC(=O)c2c(O)cccc2C1=O` [compound 2, Plumbagin], the “IC50 (ppm)” value came to 29.87 ppm.
Under `O=C1C=CC(=O)c2c(O)cccc21` [compound 1, Juglone] stands 14.81 ppm.
